Assays:
RAW264.7 cells = test: RAW264.7 macrophages, western blot of NLRP3 pathway after C3a; format: cell-based; settings: n = 3 per group
Experimental: RAW264.7 cells were provided by the Hubei Key Laboratory of Genetics and Molecular Mechanism of Cardiologic Disorders, Huazhong University of Science and Technology (China), and cultured in DMEM containing 10% fetal bovine serum at 37 ℃ and 5% CO2. RAW264.7 cells were incubated with 50 nM C3a for 12 h and then were washed twice with PBS. The cells were incubated with serum-free DMEM for 12 h and the supernatants were collected. After pretreatment with 100 ng/ml of IL-1RA for 1 h, we added the supernatants from the control or C3a group to PASMCs respectively for 24 h.
Proteins were collected from the fresh frozen-rat lung tissues using RIPA lysis buffer. Protein concentration was quantified using a BCA reagent. Equal amounts of protein were electrophoretically separated on 10% SDS polyacrylamide gel, transferred to PVDF membranes, and probed with desired primary antibodies overnight at 4 °C. Membranes were then washed with TBST and incubated with anti-mouse IgG (1:5000) or anti-rabbit IgG (1:5000) horseradish peroxidase conjugated antibodies as indicated. Blots were developed with the enhanced chemiluminescence system. To compare and quantify levels of proteins, the density of each band was measured using Image J software. Equal loading for total cell or tissue lysates was determined by β-Actin western blot.

[1] = tested on: MCT-induced rat PAH model; test: MCT-induced rat PAH model: hemodynamics, RV hypertrophy, vessel morphology; format: in vivo; settings: single i.p. injection 40 mg/kg; control group 28.00 ± 3.55 mmHg; mean ± SEM; n = 6 per group; SEM
Experimental: In the current study, two animal experiments were conducted successively. 30 rats were randomly divided into two groups (control group and MCT group, n = 15 per group) in the first experiment. MCT group rats received a single intraperitoneally injection of MCT (40 mg/kg) on day 1 to induce PAH while control group rats received an equivoluminal saline injection intraperitoneally. For the second animal experiment, the rats were assigned into four groups (control group, MCT group, CP40-KK group, and MCT + CP40-KK group, n = 15 per group). The control group was given the same volume of saline subcutaneously while the CP40-KK group rats only received CP40-KK (2 mg/kg) by subcutaneous injection from day 15 to day 28 continuously. The rats in the MCT group and MCT + CP40-KK group were received a single intraperitoneally injection of MCT (40 mg/kg) on day 1 and subcutaneously injected with either an equal volume of saline or CP40-KK (2 mg/kg) at day 15 to day 28 continuously. The dose selection of MCT and CP40-KK in our study was established based on previous studies.
Four weeks after the MCT injection, the experimental rats were weighed and anesthetized by intraperitoneal injecting pentobarbital sodium (40 mg/kg). After being anesthetized, rats were fixed in the supine position. A 3F polyethylene catheter filling with heparin was introduced into the right ventricle (RV) through the right jugular vein and the right atrium. Right ventricle systolic pressure (RVSP) was assessed by a pressure transducer and PowerLab system (AD Instruments, Australia). Pressure recordings were measured over a 2 min period and analyzed with Powerlab Pro Software (AD Instruments, Australia). After the hemodynamic study, the rats were euthanized by an overdose of anesthesia, and their lungs and hearts were dissected for further evaluation. The dry weights of the RV and left ventricle (LV) + septum were measured to calculate the RV/(LV + S) ratio and the RV / body weight (RV/BW). The left lung was fixed in 4% paraformaldehyde, and the right lung was snap-frozen in liquid nitrogen and stored at − 80 °C for further analysis.
Fixed lung samples were further fixed in 4% buffered paraformaldehyde for 24 h, embedded in paraffin, and processed for sectioning at 5 μm thick. Hematoxylin and eosin (H&E) staining were performed on paraffin-fixed lung tissue slides. The percent medial wall thickness (WT%) and percent medial wall area (WA%) were used to assess the extent of pulmonary vascular remodeling. WT% = (external diameter − internal diameter)/(external diameter) × 100%; WA% = (external area − internal area)/external area × 100%. All data were obtained and analyzed in a blinded manner.

C3 = settings: cited from earlier work
Description: The selective C3 inhibitor CP40 has been found therapeutically effective in various diseases, but has yet not been tested in the PAH model. In the current study, we applied the newly identified CP40 analog, CP40-KK, with two more lysine attached to the C terminus, in the MCT-induced PAH rat model.

[2] = tested on: primary rat pulmonary arterial smooth muscle cells (PASMCs); test: PASMC proliferation with macrophage supernatant (EdU assay, western blot); format: cell-based; settings: 24 h, n = 3 per group
Experimental: PASMCs were isolated from rat distal pulmonary arteries and then cultured in Dulbecco’s modified Eagle’s medium (DMEM) containing 20% fetal bovine serum as previously described.
Cells seeded in the 24-well plate were labeled with 10 μmol/L of EdU (Meilun, Dalian, China) for 2 h at 37 ℃. Subsequently, cells were fixed in 4% of paraformaldehyde for 20 min and incubated in phosphate-buffered saline (PBS) containing 0.5% of Triton- X100 for 15 min. After being washed three times with PBS, 150 μL of dying solution was applied per well for 30 min and nuclei staining with Hoechst 33,342 for 10 min away from light. The proliferating cells were labeled with green fluorescence, with a maximum excitation wavelength of 491 nm and a maximum emission wavelength of 518 nm for 488-Azide. The proliferative rate = EdU-positive cells/Hoechst-positive cells.
RAW264.7 cells were provided by the Hubei Key Laboratory of Genetics and Molecular Mechanism of Cardiologic Disorders, Huazhong University of Science and Technology (China), and cultured in DMEM containing 10% fetal bovine serum at 37 ℃ and 5% CO2. RAW264.7 cells were incubated with 50 nM C3a for 12 h and then were washed twice with PBS. The cells were incubated with serum-free DMEM for 12 h and the supernatants were collected. […]

## NC(N)=NCCC[C@H](NC(=O)COCC(c1ccccc1)c1ccccc1)C(=O)O.O=C(O)C(F)(F)F [C3aRa, SB290157 trifluoroacetate, reference compound]
RAW264.7 cells; RAW264.7 treated with C3a (50 nM), 1 mM C3aRa
  cellular levels of NLRP3, cleaved-caspase-1, cleaved-IL1β and IL18: reduced

## C[C@H]1C(=O)O[C@@H]2CCN3CC=C(COC(=O)[C@](C)(O)[C@]1(C)O)[C@H]23 [MCT, Monocrotaline, reference compound]
[1]
  RVSP after 4 weeks of MCT treatment: 63.03 ± 4.19 mmHg

## CC[C@H](C)[C@H](N)C(=O)N[C@H]1CSSC[C@@H](C(=O)N[C@H](C(N)=O)[C@@H](C)O)NC(=O)[C@H](CCCNC(=N)N)NC(=O)[C@H](Cc2c[nH]cn2)NC(=O)[C@H](Cc2c[nH]cn2)NC(=O)CNC(=O)[C@H](Cc2c[nH]c3ccccc23)NC(=O)[C@H](CC(=O)O)NC(=O)[C@H](CCC(N)=O)NC(=O)[C@H](C(C)C)NC(=O)[C@H](C(C)C)NC1=O [compstatin]
C3
  species specificity of C3 binding: can bind only primates but not rodent C3

## IL-1RA: IL-1RA protein reagent (MedChemExpress HY-P72566), 100 ng/ml pretreatment of PASMCs
[2]; C3a-supernatant + IL-1RA vs C3a-supernatant + PBS, western blot
  PCNA and Cyclin D1 expression in PASMCs: decreased
[2]; C3a-supernatant, 100 ng/ml IL-1RA pretreatment 1 h
  number of EdU-positive PASMCs increased by macrophage-conditioned media: reversed

## C3a: complement anaphylatoxin C3a protein used at 50 nM to stimulate macrophages
RAW264.7 cells; RAW264.7, C3a 50 nM
  cleaved-IL1β production by macrophages: stimulated macrophages to produce cleaved-IL1β

From publication PMC10870435, “A novel complement C3 inhibitor CP40-KK protects against experimental pulmonary arterial hypertension via an inflammasome NLRP3 associated pathway” (Journal of Translational Medicine, 2024)
